Results reported in PMC13376172, “BromoCatch: a self-labelling tag platform for protein modification and live cell imaging” (Nature Communications, 2026).

Key:
[1] = target: T1, Brd4-BD2 L387A,E438C (BromoCatch) (Homo sapiens, UniProt O60885, L387A/E438C); assay: intact protein LC-MS covalent adduct; DSF; format: binding
T1 construct: Brd4-BD2 (351–459)

[2] = target: Brd4-BD2 L387A,M442C (Homo sapiens, UniProt O60885, L387A/M442C)
[3] = target: T2, Brd4-BD2 L387A,E438C (BromoCatch) (Homo sapiens, UniProt O60885, E438C/L387A); assay: biochemical
[4] = target: T2, Brd4-BD2 L387A,E438C (BromoCatch); assay: competition FP kinetics (kinact/KI); intact protein MS; DSF ΔTm +[…] °C; streptavidin pull-down; format: binding; parameters: Brd4-BD2; conditions: read-out: kinact_KI

C=CS(=O)(=O)Nc1ccc(C2=N[C@@H]([C@@H](CC)C(=O)OC)c3nnc(C)n3-c3sc(C)c(C)c32)cc1 [MR121]
intact protein LC-MS covalent adduct; DSF [1]: vinyl sulfonamide (MR121) and acrylamide (MR116) performed as the best combinations, providing the highest percentage of covalent engagement

C=CC(=O)Nc1ccc(C2=N[C@@H]([C@@H](CC)C(=O)OC)c3nnc(C)n3-c3sc(C)c(C)c32)cc1 [MR116]
intact protein LC-MS covalent adduct; DSF [2]: (acrylamide, chloroacetamide, vinyl sulfonamide and epoxide) showed covalent modification of both cysteine-containing mutants | Ki [3]: 6.8 nM

CC[C@@H](C(=O)OC)[C@@H]1N=C(c2ccc(NC(=O)CCl)cc2)c2c(sc(C)c2C)-n2c(C)nnc21 [MR112]
intact protein LC-MS covalent adduct; DSF [1]: para chloroacetamide (MR112), vinyl sulfonamide (MR121) and acrylamide (MR116) performed as the best combinations

C=CC(=O)Nc1cccc(C2=N[C@@H]([C@@H](CC)C(=O)OC)c3nnc(C)n3-c3sc(C)c(C)c32)c1 [MR119]
intact protein LC-MS covalent adduct; DSF [1]: Brd4-BD2^L387A,E438C exhibited excellent reactivity towards both meta and para electrophilic ligands

CC[C@@H](C(=O)OC)[C@@H]1N=C(c2cccc(NC(=O)CCl)c2)c2c(sc(C)c2C)-n2c(C)nnc21 [MR118]
intact protein LC-MS covalent adduct; DSF [1]: the chloroacetamides MR112 and MR118 demonstrated a slight improvement in potency

C=CC(=O)Nc1ccc(C2=N[C@@H]([C@@H](CC)C(=O)NCCOCCOCCOCCOCCNC(=O)CCCC[C@@H]3SC[C@@H]4NC(=O)N[C@@H]43)c3nnc(C)n3-c3sc(C)c(C)c32)cc1 [MR169]
kinact/KI [4]: 37000 M⁻¹ s⁻¹
